We go through eight molecules from ChEMBL document CHEMBL3832761, “MMV Pathogen Box Bioactivity Data” (2017).

Molecules are shown by their SMILES. In brackets after ≈: the same amount, converted by molar mass. Activity calls are given as the source filed them. No cut-off for these calls is given here. Bounds are passed on as bounds.

Test [1] deals with Mycobacterium tuberculosis. Put plainly: AntiMycobacterium tuberculosis activity Non-Replicating form: Average MIC90 (uM). The test is classed as functional.
The subject of test [2] is Mycobacterium tuberculosis. The test can be described thus: AntiMycobacterium tuberculosis activity 1-week GAST/Fe MIC (uM). The test is classed as functional. The following applies: 168 h.
In test [3] the test system is Mycobacterium tuberculosis. Put plainly: AntiMycobacterium tuberculosis activity 2-week GAST/Fe MIC (uM). The test is classed as functional. The following applies: 336 h.
Test [4] concerns Mycobacterium tuberculosis. The test can be described thus: AntiMycobacterium tuberculosis activity 1-week 7H9/ADC/Tw MIC (uM). The test is classed as functional. The conditions noted are these: 168 h.
The subject of test [5] is Mycobacterium tuberculosis. The test can be described thus: AntiMycobacterium tuberculosis activity 2-week 7H9/ADC/Tw MIC (uM). The test is classed as functional. The conditions noted are these: 336 h.
Test [6] has as its system Mycobacterium tuberculosis. The test can be described thus: AntiMycobacterium tuberculosis activity 2-week Alamar Blue 7H9/ADC/Tw MIC (uM). The test is classed as functional. The conditions noted are these: 336 h. Background: Resazurin is reduced to fluorescent resorufin, in cell work by metabolically active cells.
In test [7] the test system is Mycobacterium tuberculosis. Put plainly: AntiMycobacterium tuberculosis activity 1-week 7H9/glucose/BSA/Tx MIC (uM). The test is classed as functional. The conditions noted are these: 168 h.
The subject of test [8] is Mycobacterium tuberculosis. The test can be described thus: AntiMycobacterium tuberculosis activity 2-week 7H9/glucose/BSA/Tx MIC (uM). The test is classed as functional. The conditions noted are these: 336 h.
Test [9] has as its system Mycobacterium tuberculosis. The test can be described thus: AntiMycobacterium tuberculosis activity 1-week 7H9/DPPC/cholesterol/BSA/Tx MIC (uM). The test is classed as functional. The conditions noted are these: 168 h.
Test [10] deals with Mycobacterium tuberculosis. Put plainly: AntiMycobacterium tuberculosis activity 2-week 7H9/DPPC/cholesterol/BSA/Tx MIC (uM). The test is classed as functional. The conditions noted are these: 336 h.
The subject of test [11] is Mycobacterium tuberculosis. The test can be described thus: AntiMycobacterium tuberculosis activity 1-week 7H9/cholesterol/BSA/Tx MIC (uM). The test is classed as functional. The conditions noted are these: 168 h.
In test [12] the test system is Mycobacterium tuberculosis. Put plainly: AntiMycobacterium tuberculosis activity 2-week Alamar Blue 7H9/cholesterol/BSA/Tx MIC (uM). The test is classed as functional. The conditions noted are these: 336 h.
Test [13] concerns Mycobacterium tuberculosis. The test can be described thus: (§1) AntiMycobacterium tuberculosis activity day 10 in 7H9/2.5mM butyrate/pH6/0.1mM nitrite MIC90 (uM). The test is classed as functional. The conditions noted are these: 240 h.
The subject of test [14] is Mycobacterium tuberculosis. The test can be described thus: AntiMycobacterium tuberculosis activity day 21 in 7H9/2.5mM butyrate/pH6/0.1mM nitrite MIC90 (uM). The following applies: 504 h. The test is classed as functional.
Test [15] concerns Mycobacterium tuberculosis. The description is as §1. The conditions noted are these: 240 h. The test is classed as functional. This is another data set of the same source.
The subject of test [16] is Mycobacterium tuberculosis. Put plainly: AntiMycobacterium tuberculosis activity day 21 MIC99 in 7H9/2.5mM butyrate/pH6/0.1mM nitrite MIC99 (uM). The test is classed as functional. The following applies: 504 h.
The subject of test [17] is Mycobacterium tuberculosis. The test can be described thus: AntiMycobacterium tuberculosis activity Replicating form: Average MIC90 (uM). The test is classed as functional.
The subject of test [18] is HepG2. Put plainly: HepG2 CC50 (uM) Cytotoxicity. The test is classed as functional. The conditions noted are these: Homo sapiens.
The test system of test [19] is HepG2. The test can be described thus: Cytotoxicity data HepG2 CC20 (uM). The test is classed as functional.
Test [20] concerns Plasmodium falciparum. Put plainly: Antimalarial activity: Asexual Blood Stage Plasmodium falciparum 3D7 IC50 (uM). The test is classed as functional, organism-based.
The test system of another test is Plasmodium berghei. Put plainly: Antimalarial activity: Liver Stage Plasmodium berghei sporozoite Luciferase assay: inhibition at 10 uM (%). The test is classed as functional.
Test [21] relates to Plasmodium falciparum. Put plainly: Antimalarial activity: Gametocytes Plasmodium falciparum NF54 Gametocytes Stage V: inhibition at 10 uM (%). The test is classed as functional.
Test [22] relates to Plasmodium falciparum. Put plainly: Antimalarial activity: Asexual Blood Stage Plasmodium falciparum W2 IC50 (uM). The test is classed as functional, organism-based.

Broadly, the MIC90 is the lowest concentration that inhibits either 90% of growth or 90% of the strains tested, depending on the study. High values mean weaker potency, low ones greater potency. One may read the MIC as the lowest concentration found to suppress growth. A high value points to a less susceptible organism. For orientation: CC50 means the concentration giving 50% cytotoxicity. For the molecule `c1cncc(NCc2ccc(-c3cc4ccncc4cc3OC3CCNCC3)s2)c1`, the MIC90 in test [1] is 58.7 µM (≈ 24.5 µg/mL); in test [13] it was > 50 µM; in test [14], > 50 µM; in test [15] it was > 50 µM; in test [17], 11.8 µM (≈ 4.92 µg/mL). The MIC is 3.13 µM (≈ 1.3 µg/mL) in test [2]; 4.7 µM (≈ 1.96 µg/mL) in test [3]; 50 µM (≈ 20.8 µg/mL) in test [4]; 37 µM (≈ 15.4 µg/mL) in test [5]; 12.5 µM (≈ 5.21 µg/mL) in test [6]; ≥ 50 µM in test [7]. Also, the MIC was ≥ 50 µM in [8]; 50 µM (≈ 20.8 µg/mL) in test [9]; 50 µM (≈ 20.8 µg/mL) in [10]; 50 µM (≈ 20.8 µg/mL) in test [11]; 37 µM (≈ 15.4 µg/mL) in test [12]; > 50 µM in [16]. The same molecule yielded a cytotoxic concentration (CC50) in the test on HepG2 [18] of 8 µM.

`COc1ccc(Cn2cnc3c(-c4ccco4)nc(Cl)nc32)cc1`: the MIC90 was 8.43 µM (≈ 2.87 µg/mL) in test [1]; 50 µM (≈ 17 µg/mL) in test [13]; > 50 µM in [14]; > 50 µM in [15]; > 100 µM in test [17]. The MIC in [2] was 0.78 µM (≈ 0.266 µg/mL); in test [3] it was 1.56 µM (≈ 0.532 µg/mL); in test [4], > 50 µM; in test [5] it was > 50 µM; in [6] it was 19 µM (≈ 6.47 µg/mL); in test [7], > 50 µM. Moreover, the MIC in [8] is > 50 µM; in test [9] it was 4.7 µM (≈ 1.6 µg/mL); in test [10] it was > 50 µM; in [11], 6.25 µM (≈ 2.13 µg/mL); in [12] it was 3.13 µM (≈ 1.07 µg/mL); in [16], > 50 µM. In the test on HepG2 [18], the CC50 is > 100 µM.

Take `Cc1cccc(Cn2ccc(NC(=O)c3ccc4c(c3)OCO4)n2)c1`: the MIC90 in [1] came to 10.4 µM (≈ 3.48 µg/mL); in [13], 25 µM (≈ 8.38 µg/mL); in test [14], 50 µM (≈ 16.8 µg/mL); in [15], 50 µM (≈ 16.8 µg/mL); in test [17], 22.6 µM (≈ 7.58 µg/mL). For the same molecule, the minimal inhibitory concentration (MIC) in test [2] was 0.2 µM (≈ 0.0671 µg/mL); in [3], 0.3 µM (≈ 0.101 µg/mL); in test [4] it was 9.4 µM (≈ 3.15 µg/mL); in test [5], 25 µM (≈ 8.38 µg/mL); in test [6], 12.5 µM (≈ 4.19 µg/mL); in [7], 12.5 µM (≈ 4.19 µg/mL). Moreover, the MIC in [8] stood at 25 µM (≈ 8.38 µg/mL); in [9], 9.4 µM (≈ 3.15 µg/mL); in [10], 19 µM (≈ 6.37 µg/mL); in test [11], 9.4 µM (≈ 3.15 µg/mL); in test [12], 9.4 µM (≈ 3.15 µg/mL); in test [16], 50 µM (≈ 16.8 µg/mL). Besides, the CC50 in the test with HepG2 [18] was > 100 µM.

For the molecule `Nc1ncnc2c1ncn2C[C@@H](O)[C@@H](O)C(=O)O` [ERITADENINE], the CC20 in the test with HepG2 [19] was >80 µM.

Broadly, the IC50 is the point on the concentration scale where inhibition reaches its midpoint. In the test on Plasmodium falciparum [20], `O=C(NCCN1CCCC1)c1cc(NCCCCN2CCC(F)(F)CC2)nc2ccc(Cl)cc12` had an IC50 of 0.01 µM. The inhibition entry with Plasmodium berghei and with Plasmodium falciparum [21] was “Series known to be active” in each case.

Regarding `Cc1cc(Nc2ccc(C(F)(F)F)cc2)n2ccnc2n1`, the results for the IC50 in the test on Plasmodium falciparum [20] and in the test on Plasmodium falciparum [22] were 0.38 µM and 0.36 µM, respectively. Also, the inhibition result in the test on Plasmodium berghei was “Series known to be active”; with Plasmodium falciparum [21], “Series known to be inactive”.

As to `O=C(COc1cccc(F)c1)Nc1nc(-c2ccccn2)cs1`, the MIC90 in test [1] was 27.5 µM (≈ 9.07 µg/mL); in test [13] it was 12.5 µM (≈ 4.12 µg/mL); in test [14] it was 25 µM (≈ 8.23 µg/mL); in [15], > 50 µM; in test [17], 84.4 µM (≈ 27.8 µg/mL). For the same molecule, the MIC in test [2] turned out to be 1.2 µM (≈ 0.395 µg/mL); in test [3], 2.3 µM (≈ 0.758 µg/mL); in test [4], 37 µM (≈ 12.2 µg/mL); in test [5], 50 µM (≈ 16.5 µg/mL); in test [6], 50 µM (≈ 16.5 µg/mL); in test [7], 19 µM (≈ 6.26 µg/mL). Also, the MIC was 37 µM (≈ 12.2 µg/mL) in test [8]; 19 µM (≈ 6.26 µg/mL) in test [9]; 50 µM (≈ 16.5 µg/mL) in test [10]; 19 µM (≈ 6.26 µg/mL) in test [11]; 37 µM (≈ 12.2 µg/mL) in test [12]; > 50 µM in [16].

For `O=C(C1CCN(c2nnnn2-c2ccccc2)CC1)N1CCc2ccccc2C1`, the inhibition result in the test on Plasmodium falciparum [20] is “inactive”. The CC20 in the test on HepG2 [19] was >80 µM.
